Assay results as given in patent publication US6399629B1, “Efflux pump inhibitors” (priority 1998, dated 2002).

Tested on: Pseudomonas aeruginosa PAM1001
Assay: checkerboard assay (broth microdilution): levofloxacin MIC in presence of efflux pump inhibitor
Format: cell-based
Method in brief: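 Checkerboard broth microdilution in Mueller Hinton Broth against P. aeruginosa PAM1001 (5×10^5 CFU/mL, early-log inoculum), levofloxacin and efflux pump inhibitor (up to 40 μg/mL) diluted along crossing axes. Plates incubated 20 h at 35° C; growth read at 650 nm and visually. Potentiation scored as reduced levofloxacin MIC.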

Row | SMILES | Levofloxacin MIC Against P. aerugiuosa PAM1001 in Presence of Efflux Pump Inhibitor (EPI), Minimum Inhibitory Concentration (EPI Conc. 0 μg/mL) [µg/mL] | Levofloxacin MIC Against P. aerugiuosa PAM1001 in Presence of Efflux Pump Inhibitor (EPI), Minimum Inhibitory Concentration (EPI Conc. 0.625 μg/mL) [µg/mL] | Levofloxacin MIC Against P. aerugiuosa PAM1001 in Presence of Efflux Pump Inhibitor (EPI), Minimum Inhibitory Concentration (EPI Conc. 1.25 μg/mL) [µg/mL] | Levofloxacin MIC Against P. aerugiuosa PAM1001 in Presence of Efflux Pump Inhibitor (EPI), Minimum Inhibitory Concentration (EPI Conc. 2.5 μg/mL) [µg/mL] | Levofloxacin MIC Against P. aerugiuosa PAM1001 in Presence of Efflux Pump Inhibitor (EPI), Minimum Inhibitory Concentration (EPI Conc. 5 μg/ mL) [µg/mL] | Levofloxacin MIC Against P. aerugiuosa PAM1001 in Presence of Efflux Pump Inhibitor (EPI), Minimum Inhibitory Concentration (EPI Conc. 10 μg/mL) [µg/mL] | Levofloxacin MIC Against P. aerugiuosa PAM1001 in Presence of Efflux Pump Inhibitor (EPI), Minimum Inhibitory Concentration (EPI Conc. 20 μg/mL) [µg/mL] | Levofloxacin MIC Against P. aerugiuosa PAM1001 in Presence of Efflux Pump Inhibitor (EPI), Minimum Inhibitory Concentration (EPI Conc. 40 μg/mL) [µg/mL]
1 | NCC(=O)N[C@H]1CN[C@H](C(=O)N[C@H](CCc2ccccc2)COc2ccc3ccccc3n2)C1 [Compound M54, (2S,rR)-4-(2-Aminoacetamido)-N-[(1R)-3-phenyl-1-[(2-quinolyloxy)methyl]propyl]-2-pyrrolidinecarboxamide] | 4 | 4 | 4 | 4 | 4 | 0.125 | 0.06 | 0.03
2 | NCC(=O)N[C@H]1CN[C@H](C(=O)N[C@H](CCc2ccccc2)CSc2ccc3ccccc3n2)C1 [Compound M55, (2S,4R)-4-(2-Aminoacetamido)-N-[(1R)-3-phenyl-1-[(2-quinolythio)methyl]propyl]-2-pyrrolidinecarobxamide] | 4 | 4 | 4 | 4 | 4 | 2 | 1 | 0.06
3 | CC(C)C[C@H](COc1cnc2ccccc2c1)NC(=O)[C@H]1C[C@H](CN)CN1 [Compound M59, (2R,4R)-4-(Aminomethyl)-N-[(1R)-3-methyl-1-[(3-quiolyloxy)methyl]butyl]-2-pyrrolidinecarboxamide] | 4 | 4 | 4 | 4 | 4 | 1 | 0.5 | 0.125
4 | Cc1ccc2ncc(C(=O)N[C@@H](CCc3ccccc3)CNC(=O)[C@H]3C[C@H](CN)CN3)cc2c1 [Compound M62, (2R,4R)-4-(Aminomethyl)-N-[(2S)-2-(6-methyl-3-quinolylcarboxamido)-4-phenylbutyl]-2-pyrrolidinecaroxamide] | 4 | 4 | 4 | 4 | 4 | 2 | 0.5 | 0.015
